Common to all, as to assay: DTP human tumour cell line panel, 48 h
In assay [1] the test system is OVCAR-5 ovarian.
The test system of assay [2] is K-562 leukemia.
Assay [3] concerns SK-MEL-2 melanoma.
Assay [4] has as its system MDA-MB-231 breast.
Assay [5] relates to MDA-MB-435.
In assay [6] the test system is KM12 colon.
Assay [7] concerns HOP-62 NSCLC.
Assay [8] has as its system HCT-116 colon.
Assay [9] concerns SW-620 colon.
Assay [10] relates to CAKI-1 renal.

“And” between values parts separate entries of the source, which are not always exact repeats. Equal values may be shown once.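 Values below derive from 48-hour exposures of cells grown in 96-well plates, with endpoints linearly interpolated between the two concentrations bracketing the appropriate inhibition level. GI50 marks 50% less growth. TGI: concentration producing complete growth inhibition.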

With `O=Cc1ccc(N2CCN(c3ccc(C=O)cc3)CC2)cc1`, the GI50 (in general, the concentration that inhibits growth by half) was 2.6 µM in assay [1]; over 100 µM in assay [2]; over 100 µM in [3]; over 100 µM in assay [4]; over 100 µM in assay [5]; over 100 µM in [6]. Moreover, the GI50 in assay [7] is over 100 µM; in [8], 71.5 µM; in assay [9] it was over 100 µM; in [10], 10.8 µM. In addition, the TGI (usually the concentration at which net growth stops) in assay [1] is 8.09 µM; in assay [2], over 100 µM; in assay [3] it was over 100 µM; in assay [4], over 100 µM; in [5], over 100 µM; in [6], over 100 µM. Moreover, the TGI is over 100 µM in assay [7], over 100 µM in [8], over 100 µM in assay [9] and 76.5 µM in assay [10].
Take `O=C(O)CCc1nc(-c2ccccc2-n2cccc2)no1`: the TGI in [1] is over 100 µM; in assay [2] it was over 100 µM; in [3], over 100 µM; in assay [4] it was over 100 µM; in assay [5], 46.3 µM; in assay [6], over 100 µM. Further, the TGI in assay [7], in assay [8], in [9] and in [10] was over 100 µM in each case.
On to `CC(/C=N/N=C(N)N)=N\N=C(N)N`, for which the GI50 is 41 µM and 19.4 µM in assay [1]; 23.1 µM in assay [2]; 28.9 µM in [3]; 7.67 µM in [4]; 23 µM in assay [5]; 21.5 µM in assay [6]. For the same molecule, the GI50 was 14.8 µM in assay [7]; 52.1 µM in assay [8]; 15 µM in [9]; 51.7 µM and 15.7 µM in assay [10]. For the same molecule, the TGI in assay [1] amounted to 347 µM; in [2], 785 µM; in [3] it was 149 µM; in assay [4] it was 965 µM; in assay [5], 452 µM; in [6] it was 34.4 µM. In addition, the TGI in assay [7] is 46.9 µM; in [8] it was 1370 µM; in [9], 2070 µM; in assay [10], 1010 µM.
For `O=C(CCCCCCCCC(=O)N/N=C\c1cc(Cl)ccc1O)N/N=C\c1cc(Cl)ccc1O`, the GI50 in assay [1] was 7.99 µM; in [2], 0.38 µM; in assay [3], 0.441 µM; in [4], 0.265 µM; in assay [5] it was 0.625 µM; in assay [6] it was 0.594 µM. Besides, the GI50 in [7] was 0.284 µM; in [8] it was 0.308 µM; in assay [9] it was 0.916 µM; in [10] it was 0.251 µM. The TGI in [1] was over 100 µM; in assay [2] it was 10.2 µM; in assay [3] it was 18.9 µM; in assay [4], over 82.6 µM; in assay [5], over 100 µM; in [6] it was over 100 µM. Besides, the TGI in [7], in [8], in [9] and in assay [10] was over 100 µM throughout.
Regarding `CC(N1CCOCC1)C(O)(c1ccccc1)c1ccccn1` (centres undefined), the TGI in assay [1], in [2], in assay [3], in assay [4], in [5] and in assay [6] was over 100 µM throughout. In addition, the TGI in [7], in [8], in assay [9] and in assay [10] was over 100 µM each time.
Consider `CN=C(N)N/N=C(\C)c1ccc2c(c1)Cc1ccccc1-2`, for which the GI50 in assay [1] is 1.65 µM; in assay [2], 1.28 µM; in [3], 1.87 µM; in assay [4], 1.78 µM; in [5], 1.64 µM; in assay [6], 1.72 µM. Also, the GI50 in assay [7] was 1.66 µM; in assay [8], 1.43 µM; in [9], 1.43 µM; in [10], 2.5 µM. Further, the TGI in assay [1] came out at 3.96 µM; in assay [2], 2.69 µM; in assay [3], 3.81 µM; in assay [4], 4.31 µM; in assay [5] it was 3.15 µM; in [6], 3.47 µM. Also, the TGI turned out to be 3.2 µM in assay [7], 2.74 µM in assay [8], 3.29 µM in assay [9] and 8.82 µM in assay [10].
Take `O=C(NOCCO)c1cc(CN2OCCCC2=O)c(F)c(F)c1Nc1ccc(I)cc1F`: the GI50 in [1] is < 0.01 µM and 0.00485 µM; in assay [2], 1.01 µM and 1.42 µM; in assay [3], < 0.01 µM and 0.00324 µM; in assay [4], 0.243 µM and 0.116 µM; in [5], < 0.01 µM and 0.00879 µM; in assay [6], 0.0561 µM and 0.0719 µM. The GI50 was 0.0195 µM in assay [7]; 0.0171 µM and 0.0207 µM in assay [8]; < 0.01 µM and 0.00529 µM in [9]; 0.29 µM in [10]. In addition, the total growth inhibition concentration (TGI) is over 100 µM in assay [1]; over 100 µM in assay [2]; 62.2 µM and > 10 µM in assay [4]; 77.1 µM and > 10 µM in [5]; over 100 µM in assay [6]; over 100 µM in assay [7]. The TGI is 28.6 µM and > 10 µM in assay [8]; over 100 µM in [9]; over 40.5 µM in [10].
As for `CCCN1CCC=C(c2ccc(Nc3nc(Nc4ccccc4C(N)=O)c4cc[nH]c4n3)c(C)c2)C1`, the GI50 in assay [1] is 4.01 µM; in [2], 4.42 µM; in [3], 2.51 µM; in assay [4] it was over 16.6 µM; in assay [5], 3.15 µM; in assay [6], 9.48 µM. For the same molecule, the GI50 in [7] is over 20 µM; in assay [8], 2.56 µM; in [9] it was 1.48 µM; in assay [10] it was 9.49 µM. Moreover, the TGI in assay [1] was over 25 µM; in assay [2], over 22.8 µM; in assay [3], 15.4 µM; in [4] it was over 25 µM; in [5], over 25 µM; in assay [6], over 25 µM. For the same molecule, the TGI in assay [7], in assay [8], in [9] and in assay [10] was over 25 µM in each case.

Values taken from PubChem BioAssay (NCI).
